Assay: cuticle abrasion test
Details: for performance in cuticle abrasion test versus comparative Examples: base shampoo containing 0.03M of the compound; for % recovery: freeze-dried cuticle abraded from 4 g hair washed twice with base shampoo containing 0.03M of the compound, lower is better
Description: The compositions were tested in a cuticle abrasion test. Root end hair (as received from the supplier) was pre-cleaned by washing for 1 minute in Composition I followed by copious rinsing in double deionised water. The hair was left to dry naturally over 24 hrs.
For each test, 4 g of hair was washed in 0.4 g of the test composition for 30 seconds, rinsed for 30 seconds, and the washing/rinsing cycle repeated. The hair was left to dry naturally overnight.
The hair was cut into 1 cm lengths, placed in a blender bucket and 200 ml of double de-ionised water was added. The blender was placed on full power for 1 minute. The liquor was decanted off and transferred to a 50 ml centrifuge tube and centrifuged for 10 minutes at 4,300 RPM. The resulting clear liquor was decanted off leaving the cuticle sediment at the bottom of the tube.
The cuticle was transferred from the tube into a beaker with 3×5 ml washes and passed through a series of sieves (425 and 53 microns). The sieves were washed with a further 2×10 ml of water to ensure complete recovery of the cuticle. The sample was made up to 50 ml in a centrifuge tube, centrifuged for 15 minutes and the liquor decanted off. The cuticle was transferred with double deionised water (2×10 ml washes) to a beaker and freeze-dried.
The freeze-dried cuticle was weighed back to determine percentage recovery.

| SMILES | performance in cuticle abrasion test versus comparative Examples | % recovery |
| --- | --- | --- |
| CC(C)(C)CCO [Compound 1, 3,3-dimethylbutan-1-ol] | perform better than comparative Examples A and B | 0.31% |
| CC(O)CC(C)(C)O (centres unmarked) [Compound B, 2-methyl-2,4 pentanediol, reference compound] |  | 0.50% |
| CC(C)(C)C(O)CO (centres unmarked) [Compound 2, 3,3-dimethyl-1,2-butanediol] | perform better than comparative Examples A and B | 0.27% |
